Our source for the EC50 values is patent publication US20230092163A1, “COMPOUNDS AND COMPOSITIONS FOR TREATING CONDITIONS ASSOCIATED WITH STING ACTIVITY” (IFM Due, Inc., priority 2019, published 2023).

pEC50: −log10 of the molar value.

Chain of STING (Q86WV6 whole entry R71H/G230A/H232R/R293Q): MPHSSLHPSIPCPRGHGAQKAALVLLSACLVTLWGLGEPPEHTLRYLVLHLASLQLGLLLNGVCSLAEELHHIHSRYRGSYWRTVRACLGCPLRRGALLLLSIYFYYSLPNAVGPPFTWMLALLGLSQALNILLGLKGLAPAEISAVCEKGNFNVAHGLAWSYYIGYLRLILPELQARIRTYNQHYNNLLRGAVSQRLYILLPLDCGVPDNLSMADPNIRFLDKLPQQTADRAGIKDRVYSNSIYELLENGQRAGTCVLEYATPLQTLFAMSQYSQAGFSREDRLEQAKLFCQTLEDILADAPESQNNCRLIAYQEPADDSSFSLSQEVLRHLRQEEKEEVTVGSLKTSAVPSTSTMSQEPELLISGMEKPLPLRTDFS

The first experiment concerns the target STING (Homo sapiens, UniProt Q86WV6, G230A/H232R/R293Q/R71H). Put plainly: STING reporter assay: THP1-Dual KO-IFNAR2 cells stimulated with 2′3′cGAMP, luciferase reporter activity. Conditions: 15 μM 2′3′cGAMP, 24h, class symbols. It is filed as cell-based. The method, then:
STING pathway activation by the compounds described herein were measured using THP1-Dual™ cells (KO-IFNAR2).
THP1-Dual™ KO-IFNAR2 Cells (obtained from invivogen) were maintained in RPMI, 10% FCS, 5 ml P/S, 2 mM L-glut, 10 mM Hepes, and 1 mM sodium pyruvate. Compounds were spotted in empty 384 well tissue culture plates (Greiner 781182) by Echo for a final concentration of 0.0017-100 μM. Cells were plated into the TC plates at 40 μL per well, 2×10E6 cells/mL. For activation with STING ligand, 2′3′cGAMP (MW 718.38, obtained from Invivogen), was prepared in Optimem media.
The following solutions were prepared for each 1×384 plate: • Solution A: 2 mL Optimem with one of the following stimuli: • 60 uL of 10 mM 2′3′cGAMP ->150 μM stock • Solution B: 2 mL Optimem with 60 μL Lipofectamine 2000->Incubate 5 min at RT
2 mL of solution A and 2 ml Solution B was mixed and incubated for 20 min at room temperature (RT). 20 uL of transfection solution (A+B) was added on top of the plated cells, with a final 2′3′cGAMP concentration of 15 μM. The plates were then centrifuged immediately at 340 g for 1 minute, after which they were incubated at 37° C., 5% CO2, >98% humidity for 24h. Luciferase reporter activity was then measured. EC50 values were calculated by using standard methods known in the art.
Luciferase reporter assay: 10 μL of supernatant from the assay was transferred to white 384-plate with flat bottom and squared wells. One pouch of QUANTI-Luc™ Plus was dissolved in 25 mL of water. 100 μL of QLC Stabilizer per 25 mL of QUANTI-Luc™ Plus solution was added. 50 μL of QUANTI-Luc™ Plus/QLC solution per well is then added. Luminescence is measured on a Platereader (e.g., Spectramax I3X (Molecular Devices GF3637001)).
Luciferase reporter activity was then measured. EC50 values were calculated by using standard methods known in the art.
A general note: In a reporter assay the amount or activity of a reporter protein is the signal.
As a reminder, the pEC50 is −log10 of the EC50, conventionally taken in molar units. Read a high pEC50 as a small EC50. In turn, `CC(C)(C)OC(=O)N1CCc2cnc(Nc3ccc4cc[nH]c4c3)nc2C1` [Compound 428, tert-butyl 2-((1H-indol-6-yl)amino)-5,6-dihydropyrido[3,4-d]pyrimidine-7(8H)-carboxylate] showed a pEC50 of 4.00 to 5.30.
Same read-out and setting: next, `CCCCCCCCc1ccc(NC(=O)Nc2ccc3cc[nH]c3c2)cc1` [Compound 237]: 6.00 to 6.70.
On the same count and under the same terms, next, `O=C(NCc1ccc(OCC(F)(F)F)nc1)Nc1ccc2cc[nH]c2c1` [Compound 176]: 5.30 to 6.00.
Still for that read-out and setting: next, `c1cc2ccc(Nc3ccc4c(n3)CCCC4)cc2[nH]1` [Compound 567, N-(1H-indol-6-yl)-5,6,7,8-tetrahydroquinolin-2-amine]: 4.00 to 5.30; `Cc1nc(Nc2ccc3cc[nH]c3c2)ccc1Cl` [Compound 595, N-(5-chloro-6-methylpyridin-2-yl)-1H-indol-6-amine]: 4.00 to 5.30; `FC(F)(F)c1nc(Nc2cc(Cl)c3cc[nH]c3c2)ccc1Cl` [Compound 568]: 6.00 to 6.70.
The compound `Cn1ccc2ccc(NC(=O)Nc3ccc(C(F)(F)F)cc3)cc21` [Compound 268] had a pEC50 of 4.00 to 5.30.
Same read-out and setting: next, `COC(=O)c1cc(NC(=O)Nc2ccc(C(F)(F)F)cc2)cc2[nH]ccc12` [Compound 165]: 6.00 to 6.70; `FC(F)(F)c1cccc2nc(Nc3ccc4cc[nH]c4c3)ccc12` [Compound 574, N-(1H-indol-6-yl)-5-(trifluoromethyl)quinolin-2-amine]: 6.00 to 6.70; `CNC(=O)Cc1c[nH]c2cc(NC(=O)Nc3ccc(C(F)(F)F)cc3)ccc12` [Compound 540]: 4.00 to 5.30.
`O=C(NCc1ccc(Cl)c(C(F)(F)F)c1)Nc1ccc2cc[nH]c2c1` [Compound 207]: the pEC50 is 5.30 to 6.00.
`CNS(=O)(=O)c1c[nH]c2cc(NC(=O)Nc3ccc(C(F)(F)F)cc3)ccc12` [Compound 508] showed a pEC50 of 4.00 to 5.30.
For the compound `Fc1cnc(Nc2ccc3cc[nH]c3c2)cc1Nc1ccc2cc[nH]c2c1` [Compound 593, 5-fluoro-N2,N4-bis(1H-indol-6-yl)pyridine-2,4-diamine], the pEC50 is 5.30 to 6.00.
Same read-out and setting: next, `Cc1ccc2ccc(Nc3ccc4cc[nH]c4c3)nc2c1` [Compound 592]: 5.30 to 6.00.
Consider `O=C(NCCCc1cncc(C(F)(F)F)c1)Nc1ccc2cc[nH]c2c1` [Compound 177], for which the pEC50 is 5.30 to 6.00.
Same read-out and setting: next, `CCOCc1ccc(Nc2ccc3cc[nH]c3c2)nc1` [Compound 412, N-(5-(ethoxymethyl)pyridin-2-yl)-1H-indol-6-amine]: 4.00 to 5.30; `O=C(Nc1cc(F)cc(C(F)(F)F)c1)Nc1cc(CCO)c2cc[nH]c2c1` [Compound 501]: 5.30 to 6.00; `Cc1cc2ccc(Nc3ccc4cc[nH]c4c3)nc2cc1C(F)(F)F` [Compound 552]: 6.00 to 6.70.
The same measure, in the same setting: the result for `FC(F)(F)c1nc(Nc2ccc3cc[nH]c3c2)ccc1Cl` [Compound 405, N-(5-chloro-6-(trifluoromethyl)pyridin-2-yl)-1H-indol-6-amine] reads 6.00 to 6.70.
Take `O=C(Nc1cc(F)cc(C(F)(F)F)c1)Nc1ccc2c(F)c[nH]c2c1` [Compound 535]: the pEC50 is 6.00 to 6.70.
Still for that read-out and setting: the result for `N#Cc1cc(NC(=O)Nc2ccc(C(F)(F)F)cc2)cc2[nH]ccc12` [Compound 245] reads 6.70 to 7.40; that for `O=C(Nc1ccc2cc[nH]c2c1)NC1CCc2ccc(C(F)(F)F)cc21` (stereo not shown) [Compound 181], 5.30 to 6.00; that for `Brc1ccc2ccc(Nc3ccc4cc[nH]c4c3)nc2c1` [Compound 607], 6.00 to 6.70.
The same measure, in the same setting: next, `CNC(=O)Nc1ccc2[nH]cc(NC(=O)Nc3ccc(C(F)(F)F)cc3)c2c1` [Compound 275]: 5.30 to 6.00.
The same measure, in the same setting: next, `O=C(Nc1cccc(S(=O)(=O)C(F)(F)F)c1)Nc1ccc2[nH]ccc2c1` [Compound 315]: 4.00 to 5.30.
With `O=C(Nc1ccc(C(F)(F)F)cc1)Nc1cc2[nH]ccc2cn1` [Compound 110], the pEC50 is 4.00 to 5.30.
Same read-out and setting: the result for `O=C(Nc1cc(Cl)cc(C(F)(F)F)c1)Nc1ccc2cc[nH]c2c1` [Compound 254] reads 6.00 to 6.70; that for `C#Cc1ccc(NC(=O)Nc2ccc3cc[nH]c3c2)cc1` [Compound 152], 6.00 to 6.70; that for `Cc1cccc(CNC(=O)Nc2ccc3cc[nH]c3c2)c1` [Compound 225], 4.00 to 5.30.
Turning to `CC(C)(C)c1cc(NC(=O)Nc2ccc3cc[nH]c3c2)on1` [Compound 217], the pEC50 is 4.00 to 5.30.
The compound `Cc1ncccc1-n1cc(C#N)c2ccc(NC(=O)Nc3ccc(C(F)(F)F)cc3)cc21` [Compound 527] showed a pEC50 of 4.00 to 5.30.
On the same count and under the same terms, the result for `CCc1ccc2ccc(Nc3ccc4cc[nH]c4c3)nc2c1` [Compound 385] reads 5.30 to 6.00.
Same read-out and setting: the result for `O=C(Nc1ccc(C(F)(F)F)cc1)Nc1ccc2c(F)c[nH]c2c1` [Compound 242, 3-(3-fluoro-1H-indol-6-yl)-1-[4-(trifluoromethyl)phenyl]urea] reads 6.00 to 6.70; that for `CCC(NC(=O)Nc1ccc2[nH]ccc2c1)c1cccc(C(F)(F)F)c1` (stereo not shown) [Compound 313], 4.00 to 5.30.
On the same count and under the same terms, the result for `O=C(Nc1ccc(C2CC(F)(F)C2)c(F)c1)Nc1cc(Cl)c2cc[nH]c2c1` [Compound 548] reads 6.70 to 7.40; that for `O=C(Nc1ccc2cc[nH]c2c1)NC1CCC2(CCCCC2)OC1` (stereo not shown) [Compound 243], 4.00 to 5.30.
`CCCCCCCCCCCCCCCCNC(=O)Nc1ccc2cc[nH]c2c1` [Compound 235] had a pEC50 of 6.00 to 6.70.
Same read-out and setting: next, `O=C(Nc1ccc(C(F)(F)F)cc1)Nc1ccc2c(Br)c[nH]c2c1` [Compound 196]: 6.00 to 6.70.

Staying with this experiment, now noted: 15 μM 2′3′cGAMP, 24h, numeric bounds.
Consider `Cc1nc(Nc2ccc3cc[nH]c3c2)ccc1Br` [Compound 399, N-(5-bromo-6-methylpyridin-2-yl)-1H-indol-6-amine], for which the negative logarithm of the EC50 (pEC50) was less than 4.52.
On the same count and under the same terms, the result for `O=C(NCC1(c2cccc(Cl)c2)CCOCC1)Nc1ccc2cc[nH]c2c1` [Compound 154] reads less than 4.52; that for `CCc1ccccc1NC(=O)Nc1ccc2cc[nH]c2c1` [Compound 229], less than 4.52.
Still for that read-out and setting: the result for `Cc1nc(Nc2ccc3cc[nH]c3c2)ccc1C#N` [Compound 598, 6-((1H-indol-6-yl)amino)-2-methylnicotinonitrile] reads less than 4.52; that for `FC(F)Oc1ccc(Nc2ccc3cc[nH]c3c2)nc1` [Compound 413, N-(5-(difluoromethoxy)pyridin-2-yl)-1H-indol-6-amine], less than 4.52.
`CC(Cc1cccc(C(F)(F)F)c1)NC(=O)Nc1ccc2[nH]ccc2c1` (stereo not shown) [Compound 288] had a pEC50 of less than 4.52.
Take `O=C(Nc1cccc(S(=O)(=O)N2CCCC2)c1)Nc1ccc2[nH]ccc2c1` [Compound 282]: the pEC50 is less than 4.52.
Still for that read-out and setting: next, `N#Cc1cc(NC(=O)Nc2cnc(N3CC(F)(F)C3)c(F)c2)cc2[nH]ccc12` [Compound 511]: less than 4.52.
Still for that read-out and setting: next, `O=C(NCc1ccc(OCC(F)(F)F)nc1)Nc1ccc2[nH]ccc2c1` [Compound 296]: less than 4.52.
As for `O=C(NCCN1CCC(Cc2ccccc2)CC1)Nc1ccc2[nH]ccc2c1` [Compound 294], the pEC50 was less than 4.52.
Same read-out and setting: next, `CCCCCCCCc1ccc(NC(=O)Nc2ccc3[nH]ccc3c2)cc1` [Compound 352]: less than 4.52; `O=C1CCc2nc(Nc3ccc4cc[nH]c4c3)ccc21` [Compound 596, 2-[(1H-indol-6-yl)amino]-5H,6H,7H-cyclopenta[b]pyridin-5-one]: less than 4.52.
On the same count and under the same terms, next, `CN(C)S(=O)(=O)c1cccc(NC(=O)Nc2ccc3[nH]ccc3c2)c1` [Compound 312]: less than 4.52; `O=C(Nc1ccc2[nH]ccc2c1)Nc1ccccc1F` [Compound 364]: less than 4.52.
The same measure, in the same setting: next, `N#Cc1ccc(OC2CCC(NC(=O)Nc3ccc4[nH]ccc4c3)CC2)cc1` (stereo not shown) [Compound 308]: less than 4.52.
Compound `O=C(Nc1ccc2[nH]ccc2c1)Nc1ccon1` [Compound 334] had a pEC50 of less than 4.52.
The same measure, in the same setting: next, `CN(C)S(=O)(=O)c1ccc(NC(=O)Nc2ccc3[nH]ccc3c2)cc1` [Compound 292]: less than 4.52; `O=C(Nc1ccc(C(F)(F)F)cc1)Nc1ccc2cc(-c3ccccc3)[nH]c2c1` [Compound 256]: less than 4.00.
The same measure, in the same setting: next, `CC(O)c1ccnc(Nc2ccc3cc[nH]c3c2)c1` (stereo not shown) [Compound 395, 1-(2-((1H-indol-6-yl)amino)pyridin-4-yl)ethanol]: less than 4.52; `O=C(Nc1ccc2cc[nH]c2c1)Nc1ccccc1Cl` [Compound 194]: less than 4.52.
Compound `c1cnc2ccnc(Nc3ccc4cc[nH]c4c3)c2c1` [Compound 478, N-(1H-indol-6-yl)-1,6-naphthyridin-5-amine] gave a pEC50 of less than 4.52.
The same measure, in the same setting: next, `Cn1ccc2cc(NC(=O)Nc3ccc(C(F)(F)F)cc3)ccc21` [Compound 377]: less than 4.00; `CC1(CNC(=O)Nc2ccc3cc[nH]c3c2)CCC(F)(F)CC1` [Compound 171]: less than 4.52.
